# Test results reported in article PMC11883425, “The synthesis and investigation of novel 3-benzoylbenzofurans and pyrazole derivatives for anti-HIV activity” (RSC Medicinal Chemistry, 2025).
# Like-named read-outs stand apart in the source and are kept apart here.
# Assays:
# [1] = Cytotoxicity in TZM-bl cells by MTT assay; format: cell-based; settings: human, MTT assay, 48 hours, mean ± SEM
# Experimental: (§1) All cell culture reagents and cell growth medium were purchased from Sigma-Aldrich/Merck. The cell lines are TZM-bl cells (HeLa cells derived cell that is genetically engineered to contain CD4 and CCR5/CXCR4 receptor) were obtained from NIH AIDS Reagent Program and HEK 293T (derived from human embryonic kidney cells) were received as donations from the lab of Dr Patience Mthunzi, Biophotonics laboratory, CSIR. […] The cells were cultured in T-75 culture flasks (Lasec SA (Pty) Ltd Johannesburg) in Dulbecco's modified Eagle's medium (DMEM) with 3.7 g L^−1 […], 0.05% (v/v) gentamicin/mL, 1% penicillin/streptomycin and 10% heat-inactivated fetal bovine serum (Celtic Molecular Diagnostics). All incubations for tissue cell culture were conducted in a 37 °C, 5% CO2, and 95% humidity incubator.
# (§2) The cytotoxicity of compounds was evaluated in TZM-bl cells since these cells are susceptible to HIV infections and would be used for the evaluation of HIV entry inhibition by 3-benzoylbenzofurans and pyrazole derivatives.[74] MTT dye (3-(4,5-dimethylthiazol-2-yl)-2,5-diphenyltetrazolium bromide), which is reduced by viable cells to produce […] purple formazan, was then measured and correlated with cell viability.[75] TZM-bl cells were cultured to confluency in DMEM containing 10% FBS and harvested by centrifugation at 1200 × g for 5 minutes. The cells were counted at 1 × 10^5 cells per mL per well and were seeded overnight, followed by treatment with serially diluted compounds from 500 to 0.98 μM for 48 hours. The peripheral blood mononuclear cells (PBMCs) were isolated from the blood of HIV-negative volunteers, treated with phytohaemagglutinin-protein (PHA, 4 μg mL^−1) to stimulate the cells for 2 hours. PBMCs were diluted in RPMI-1640 medium, counted and 1 × 10^6 cells per mL were treated with compounds (500 to 0.98 μM) for 48 hours. Cells were harvested by centrifugation at 1200 × g for 5 minutes, and the supernatants were removed. For the PBMCs, MTS dye (3-(4,5-dimethylthiazol-2-yl)-5-(3-carboxymethoxyphenylo)-2-(4-sulfophenyl)-2H-tetrazolium) was used.[76] A 100 μL of tetrazolium dye (5 mg mL^−1 MTT prepared in DMEM or 1 : 9 dilution MTS prepared in RPMI-1640) was added to the wells and incubated for 4 to 24 hours. MTT samples were solubilized with 100 μL solubilization buffer (1 mL HCl: 9 mL isopropanol) for 30 minutes, and the absorbance reading was taken at 550 nm and 690 nm wavelengths. MTS sample readings were taken at 490 nm without a solubilization step using the SpectraMax^R Paradigm^R Multi-Mode Detection Platform plate reader (Molecular Devices, California, USA).
# HIV-1 Q23 pseudovirus = test: HIV-1 whole virus inhibition assay, Q23 pseudovirus (luciferase, TZM-bl cells); format: cell-based
# Experimental: (§3) The HIV pseudoviruses were produced from the plasmids that were kindly donated by Dr Mthunzi-Kufa (CSIR, South Africa). Competent DH5α cells and STBL2 cells were transformed with envelope (CAP210.2.00.E8 and Q23.17) and backbone plasmid (HIV-1 SG3 ΔEnv) through heat-shock at 42 °C for 90 seconds and cooled in ice for 5 minutes. The transformed cells were grown in Luria Bertani medium containing 100 μg mL^−1 ampicillin and glycerol stocks were prepared. The transformed cells were grown at 37 °C in a 200 rpm shaking incubator overnight and the plasmids were isolated from the cells using a GeneJET plasmid Miniprep Kit (ThermoFisher Scientific Inc). The purity of the isolated plasmids was assessed for purity using Nanodrop. The HEK 293T cells were co-transfected with the backbone (10 μg) and envelope plasmids (5 μg) using the PolyFect Transfection Reagent (QIAGEN N.V) for 8–12 hours and the transfected cells were grown for 48 hours producing pseudoviruses which were collected, and stocks stored at −80 °C.
# (§4) The compounds were serial diluted from 100 to1.56 μM in 96 well plates (Separation Scientific SA (Pty) Ltd) and incubated with either CAP210 or Q23 pseudoviruses (200 TCID50) and incubated for 1 hour. The TZM-bl cells (1 × 10^5 cells per mL containing 7.5 μg mL^−1 DEAE-dextran) were added and incubated for 48 hours. The 96 well plates were centrifuged, and the supernatant was removed leaving only 50 μL in each well. The Bright-Glo™ Luciferase substrate (Anatech Instruments (Pty) Ltd) (50 μL) was added to each well and incubated for 2 minutes in the dark and chemiluminescence readings were taken in a Corning® 96-well white polystyrene plate using a SpectraMax® Paradigm® Multi-Mode Microplate Reader.
# HIV-1 CAP210 pseudovirus = test: HIV-1 whole virus inhibition assay, CAP210 pseudovirus (luciferase, TZM-bl cells); format: cell-based
# Experimental: as §3, §4
# CAP210 pseudovirus = test: Time of drug addition assay, CAP210 pseudovirus in TZM-bl cells; format: cell-based, HIV-1; settings: added 0, 2, 4, 6, 8 hours post-infection
# Experimental: Fig. 5 Time of addition assay of CAP210 HIV infection treated with active compounds. TZM-bl cells were infected with CAP210 pseudoviruses and treated with compounds at various hours post-infection. NVP, 3g, and 4b were used at 3 μM, while 5f and 5h were used at 25 μM. The bars represent the mean ± SEM obtained from three independent experiments.
# TZM-bl cells (1 × 10^5 cells per mL containing 7.5 μg mL^−1 DEAE-dextran) were infected with CAP210 pseudovirus at 400 TCID50 and incubated at 37 °C for 48 hours. The compounds were added to the wells at various time points (0, 2, 4, 6, and 8 hours) post-infection. […] After 48 hours, the cells were centrifuged at 1200 × g for 5 minutes, culture media was removed, leaving 50 μL, and Bright-Glo substrate (50 μL) was added to detect luciferase activity for 2 minutes at 37 °C. Inhibition of HIV pseudoviruses by active compounds was detected by reading for chemiluminescence using a Corning® 96-well white polystyrene using the SpectraMax® Paradigm® Multi-Mode Microplate Reader.
# HIV-1 PR = molecular target: T1, HIV-1 PR (Human immunodeficiency virus type 1 group M subtype B, UniProt P04585); test: HIV-1 protease inhibition assay (fluorogenic substrate); format: biochemical; settings: for SI (HIV-1 PR): CC50 PBMCs / IC50 HIV-1 PR
# T1 construct: 2 μL recombinant HIV-PR (0.2 μg mL^−1) was added only to reaction wells
# Experimental: Compounds were serially diluted in protease assay buffer (0.1 M CH3COONa, 1 M NaCl, 1 mM EDTA, 1 mM DTT, and 1 mg mL^−1 BSA; pH 4.7), making a final concentration of 75 to 9.4 μM, and 49 μL of compounds were added to wells. 49 μL protease substrate 1 (10 μM) was added to each well, and 2 μL recombinant HIV-PR (0.2 μg mL^−1) was added only to reaction wells except for reaction blanks, where it was replaced with 2 μL assay buffer. The solutions were mixed and incubated at 37 °C for 1 hour. Endpoint fluorescence readings at an excitation wavelength of 370 nm and an emission wavelength of 520 nm.
# [2] = Cytotoxicity in PBMCs by MTS assay; format: cell-based; settings: human, peripheral blood mononuclear cells (PBMCs), PHA-stimulated, HIV-negative PBMCs
# Experimental: as §2
# [3] = test system: HIV-1 subtype C pseudoviruses; settings: cited from earlier work
# TZM-bl cells = test: Cytotoxicity in TZM-bl cells by MTT assay; format: cell-based; settings: pyrazole vs benzofuran precursor
# Experimental: as §1, §2
# [4] = TZM-bl, 48 h, read-out: IC50 (μM) Q23, Q23 pseudovirus, TZM-bl cells, 48 hours
# [5] = TZM-bl, 48 h, read-out: IC50 (μM) CAP210, CAP210 pseudovirus, TZM-bl cells, 48 hours
# [6] = lowest concentrations tested, Fig. 3
Structure (SMILES),CC50 at 48 h [1],IC50 (HIV-1 Q23 pseudovirus; [4]),IC50 (HIV-1 CAP210 pseudovirus; [5]),also measured
"COc1cc(F)ccc1C(=O)c1coc2c1cc(OC)c1ccccc12 [4e, (4-Fluoro-2-methoxyphenyl)(5-methoxynaphtho[1,2-b]furan-3-yl)methanone]",35.2 ± 2.32 µM,20.9 ± 2.2 µM,4.27 ± 0.19 µM,–
"COc1cc(F)ccc1C(=O)c1coc2ccc(O)cc12 [3f, (4-fluoro-2-methoxyphenyl)(5-hydroxy-1-benzofuran-3-yl)methanone]",41.9 ± 6.33 µM,40.6 ± 7.85 µM,11.2 ± 0.31 µM,–
"COc1cc(F)ccc1-c1n[nH]cc1-c1cc(OC)c2ccccc2c1O [5e, 2-[3-(4-Fluoro-2-methoxyphenyl)-1H-pyrazol-4-yl]-4-methoxynaphthalen-1-ol]",103 ± 11.1 µM,15.7 ± 8.17 µM,29.09 ± 0.18 µM,–
"COc1ccc(OC)c(-c2n[nH]cc2-c2cc(OC)c3ccccc3c2O)c1 [5c, 2-[3-(2,5-Dimethoxyphenyl)-1H-pyrazol-4-yl]-4-methoxynaphthalen-1-ol]",47.7 ± 17.7 µM,13 ± 3.75 µM,20.5 ± 6.8 µM,–
"COc1ccc(OC)c(-c2n[nH]cc2-c2cc(O)ccc2O)c1 [5h, 2-[3-(2,5-Dimethoxyphenyl)-1H-pyrazol-4-yl]benzene-1,4-diol]",142 ± 13.2 µM,< 10 µM,< 10 µM,IC50 (HIV-1 Q23 pseudovirus; {}): 8.14 ± 2.63 µM; IC50 (HIV-1 CAP210 pseudovirus; {}): 6.31 ± 0.31 µM; inhibition of HIV infection by time of addition (CAP210 pseudovirus; 25 μM): only inhibited HIV infections when added on the onset of infection; IC50 (HIV-1 PR): 50.7 ± 0.78 µM; SI (HIV-1 PR) (HIV-1 PR): 1.6; CC50 at 48 h [2]: 83.2 ± 9.7 µM
"COc1ccc(OC)c(C(=O)c2coc3ccc(O)cc23)c1 [3h, (5-Hydroxybenzofuran-3-yl)(2,5-dimethoxyphenyl)methanone]",50 ± 10.5 µM,5.74 ± 1.51 µM,4.45 ± 0.82 µM,–
Cc1cn([C@H]2C[C@H](N=[N+]=[N-])[C@@H](CO)O2)c(=O)[nH]c1=O [zidovudine],–,–,–,IC50 [3]: 0.05 µM
"COc1ccc(Br)cc1-c1n[nH]cc1-c1cc(OC)c2ccccc2c1O [5d, 2-[3-(5-Bromo-2-methoxyphenyl)-1H-pyrazol-4-yl]-4-methoxynaphthalen-1-ol]",75 ± 6.4 µM,16.2 ± 2.55 µM,20.8 ± 1 µM,–
"COc1ccc(C(=O)c2coc3ccc(O)cc23)c(OC)c1OC [3g, (5-Hydroxybenzofuran-3-yl)(2,3,4-trimethoxyphenyl)methanone]",79.9 ± 7.25 µM,–,–,inhibition of HIV infection by time of addition (CAP210 pseudovirus; 3 μM): inhibit HIV infections for up to 8 hours; IC50 (HIV-1 PR): 70.9 ± 12.4 µM; SI (HIV-1 PR) (HIV-1 PR): 1.3; CC50 at 48 h [2]: 89.5 ± 11.6 µM
"COc1ccc(OC)c(C(=O)c2coc3c2cc(OC)c2ccccc23)c1 [4c, (2,5-Dimethoxyphenyl)(5-methoxynaphtho[1,2-b]furan-3-yl)methanone]",9.65 ± 2.37 µM,12.6 ± 0.53 µM,2.43 ± 1.28 µM,–
"COc1ccc(OC)c(C(=O)c2coc3c(C)cc(OC)c(C)c23)c1 [4b, (2,5-Dimethoxyphenyl)(5-methoxy-4,7-dimethyl-1-benzofuran-3-yl)methanone]",8.42 ± 1.16 µM,–,–,inhibition of HIV infection by time of addition (CAP210 pseudovirus; 3 μM): inhibit HIV infections for up to 8 hours; IC50 (HIV-1 PR): 57.5 ± 10.1 µM; SI (HIV-1 PR) (HIV-1 PR): 0.7; CC50 at 48 h [2]: 41.3 ± 6.78 µM
"COc1ccc(Br)cc1C(=O)c1coc2c1cc(OC)c1ccccc12 [4d, (5-Bromo-2-methoxyphenyl)(5-methoxynaphtho[1,2-b]furan-3-yl)methanone]",7.77 ± 1.54 µM,22.4 ± 3.47 µM,3.28 ± 1.48 µM,–
"COc1ccc(OC)c(C(=O)c2coc3cc(C)c(OC)c(C)c23)c1 [4a, (2,5-Dimethoxyphenyl)(5-methoxy-4,6-dimethyl-1-benzofuran-3-yl)methanone]",59.1 ± 6.56 µM,18.1 ± 1.78 µM,8.12 ± 2.56 µM,–
"COc1ccc(OC)c(-c2n[nH]cc2-c2c(O)cc(C)c(OC)c2C)c1 [5a, 2-[3-(2,5-Dimethoxyphenyl)-1H-pyrazol-4-yl]-4-methoxy-3,5-dimethylphenol]",88.9 ± 22.1 µM,13.3 ± 1.12 µM,18.4 ± 3.2 µM,decrease in cytotoxicity versus precursor (TZM-bl cells): 1 fold
"COc1ccc(-c2n[nH]cc2-c2cc(O)ccc2O)c(OC)c1OC [5g, 2-[3-(2,3,4-Trimethoxyphenyl)-1H-pyrazol-4-yl]benzene-1,4-diol]",140 ± 17.1 µM,< 10 µM,13.8 ± 1.7 µM,IC50 (HIV-1 Q23 pseudovirus; {}): 9.93 ± 0.69 µM
"COc1ccc(OC)c(-c2n[nH]cc2-c2c(C)c(OC)cc(C)c2O)c1 [5b, 2-[3-(2,5-Dimethoxyphenyl)-1H-pyrazol-4-yl]-4-methoxy-3,6-dimethylphenol]",46.5 ± 6.66 µM,10.1 ± 1.66 µM,7.87 ± 0.91 µM,–
"COc1cc(F)ccc1-c1n[nH]cc1-c1cc(O)ccc1O [5f, 2-[3-(4-Fluoro-2-methoxyphenyl)-1H-pyrazol-4-yl]benzene-1,4-diol]",36.1 ± 7.95 µM,–,–,anti-HIV activity (Q23) (HIV-1 Q23 pseudovirus; [6]): over 90%; anti-HIV activity (CAP210) (HIV-1 CAP210 pseudovirus; [6]): over 90%; inhibition of HIV infection by time of addition (CAP210 pseudovirus; 25 μM): only inhibited HIV infections when added on the onset of infection; IC50 (HIV-1 PR): 31.6 ± 3.83 µM; SI (HIV-1 PR) (HIV-1 PR): 3.1; CC50 at 48 h [2]: 98.2 ± 1.3 µM
